# Data from US8163781B2, “Bi-aryl aminotetralines” (Hoffman-La Roche Inc., priority 2008, dated 2012).
# Molecular target: T1, human CRTH2 (Homo sapiens, UniProt Q9Y5Y4)
# T1 construct: expressed in transfected cells
# T1 sequence (Q9Y5Y4 1-395): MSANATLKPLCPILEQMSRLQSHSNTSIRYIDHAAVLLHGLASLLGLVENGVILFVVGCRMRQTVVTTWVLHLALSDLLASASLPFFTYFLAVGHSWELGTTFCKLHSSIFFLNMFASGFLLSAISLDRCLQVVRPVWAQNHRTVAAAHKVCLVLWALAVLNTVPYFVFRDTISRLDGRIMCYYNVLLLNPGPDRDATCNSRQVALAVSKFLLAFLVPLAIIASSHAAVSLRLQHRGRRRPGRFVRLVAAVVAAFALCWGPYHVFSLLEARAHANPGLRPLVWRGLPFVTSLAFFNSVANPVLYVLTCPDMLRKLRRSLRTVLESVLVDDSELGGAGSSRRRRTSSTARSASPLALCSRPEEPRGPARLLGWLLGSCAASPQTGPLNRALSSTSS
# Experiment: Human CRTH2 Receptor Binding Assay
# Conditions: whole cell binding, CHO-K1 cells expressing human CRTH2, 20 nM [3H]ramatroban as competing radioligand
# Text: A whole cell receptor binding assay using [^3H]ramatroban as the competing radioactive ligand was employed to evaluate the compound binding activity to human CRTH2. The radioactive ligand [^3H]ramatroban was synthesized according to Sugimoto et. al. (Eur. J. Pharmacol. 524, 30-37, 2005) to a specific activity of 42 Ci/mmol.
# A cell line stably expressing human CRTH2 was established by transfecting CHO-K1 cells with two mammalian expression vectors that harbored human CRTH2 and G-alpha16 cDNAs, respectively, using FuGene® 6 transfection reagent (from Roche). Stable clones expressing CRTH2 were selected by staining each clone with BM16 (BD Pharmingen™ from BD Biosciences, a division of Becton, Dickinson and Company), which is a rat monoclonal antibody to human CRTH2. The cells were maintained as monolayer cultures in Ham's F-12 medium containing 10% fetal bovine serum, 100 units/mL penicillin, 100 μg/mL streptomycin, 2 mM glutamine, 0.5 mg/mL G418 (geneticin) for CRTH2, and 0.2 mg/mL hygromycin-B (for G-alpha 16). For whole cell receptor binding assay, the monolayer cells were rinsed once with PBS (phosphate buffered saline), dissociated using ethylenediaminetetraacetate (Versene™ EDTA from the Lonza Inc.), and suspended in PBS containing 10 mM MgCl2 and 0.06% BSA (bovine serum albumin) at 1.5×10^6 cells/mL.
# The binding reactions (0.2 mL) were performed in 96-well plates at room temperature in PBS containing 1.5×10^5 cells, 10 mM MgCl2, 0.06% BSA, 20 nM [^3H]ramatroban, and test compound at various concentrations. After 1 hour of binding reactions, the cells were harvested on GF™/B filter microplates (microtiter plates with embedded glass fiber from PerkinElmer, Inc.) and washed 5 times with PBS using a Filtermate™ Harvester (a cell harvester that harvests and washes cells from microplates from PerkinElmer, Inc.). The radioactivities bound to the cells were determined using a microplate scintillation counter (TopCount® NXT, from PerkinElmer, Inc.) after adding 50 μL of Microscint™ 20 scintillation fluid (from PerkinElmer, Inc.) to each well of the filter plates. The radioactivity from non-specific binding was determined by replacing compound with 10 μM of 15(R)-15-methyl PGD2 (from Cayman Chemical Company) in the reaction mixtures. The radioactivity bound to the cells in the absence of compound (total binding) was determined by replacing compound with 0.25% of DMSO (dimethyl sulfoxide) in the reaction mixture. Specific binding data were obtained by subtracting the radioactivity of non-specific binding from each binding data.
# The IC50 value is defined as the concentration of the tested compound that is required for 50% inhibition of total specific binding. In order to calculate the IC50 value, the percent inhibition data were determined for 7 concentrations for each compound. The percent inhibition for a compound at each concentration was calculated according to the following formula, [1-(specific binding in the presence of compound)/(total specific binding)]×100. The IC50 value was then obtained by fitting the percent inhibition data to a sigmoidal dose-response (4 parameter logistic) model in the XLfit® software Excel add-in program [from ID Business Solutions Ltd., model 205, where F(x)=(A+(B−A)/(1+((C/x)^D)))].
row,IC50 [nM],SMILES
1,11.2,"O=C(O)COc1cccc2c1CCC[C@H]2NS(=O)(=O)c1ccc(Oc2ccc(F)cc2)c(C(F)(F)F)c1 [Example 2-42, {(R)-5-[4-(4-Fluoro-phenoxy)-3-trifluoromethyl-benzenesulfonylamino]-5,6,7,8-tetrahydro-naphthalen-1-yloxy}-acetic acid]"
2,13.5,"C[S+]([O-])c1cccc(-c2ccc(S(=O)(=O)N[C@@H]3CCCc4c(OCC(=O)O)cccc43)cc2)c1 (stereo partly drawn) [Example 4-1, [(R)-5-(3′-Methanesulfinyl-biphenyl-4-sulfonylamino)-5,6,7,8-tetrahydro-naphthalen-1-yloxy]-acetic acid]"
3,74.9,"Cc1cccc(-c2ccc(S(=O)(=O)NC3CCCc4c(OCC(=O)O)cccc43)cc2)n1 (centres unmarked) [Example 3-9, {5-[4-(6-Methyl-pyridin-2-yl)-benzenesulfonylamino]-5,6,7,8-tetrahydro-naphthalen-1-yloxy}-acetic acid]"
4,76.4,"O=C(O)COc1cccc2c1CCCC2NS(=O)(=O)c1cnc(Oc2ccc(F)cc2Cl)c(Br)c1 (centres unmarked) [Example 2-1, {5-[5-Bromo-6-(2-chloro-4-fluoro-phenoxy)-pyridine-3-sulfonylamino]-5,6,7,8-tetrahydro-naphthalen-1-yloxy}-acetic acid]"
5,60.3,"N#Cc1cccc(Oc2ncc(S(=O)(=O)NC3CCCc4c(OCC(=O)O)cccc43)cc2Br)c1 (centres unmarked) [Example 2-6, {5-[5-Bromo-6-(3-cyano-phenoxy)-pyridine-3-sulfonylamino]-5,6,7,8-tetrahydro-naphthalen-1-yloxy}-acetic acid]"
